Source: US20230104487A1, “11-(4-CHLOROPHENYL)-4-(2,3-DIHYDRO-1H-INDOLE-1-CARBONYL)-3,11-DIMETHYL-5,10,DIOXATRICYCLO[7.4.0.0,2,6,]TRIDECA-1,3,6,8-TETRAEN-13-ONE AND DERIVATIVES AS DESTABILIZER OF CRY1 FOR THE TREATMENT OF CIRCADIAN RHYTHM ASSOCIATED DISEASES AND DISORDERS” (KOC UNIVERSITESI, priority 2019, published 2023)

What was measured:
C57BL/6J mice = assay: Repeated dose toxicity study, 5-day maximum tolerated dose; type: in vivo
Description: The single dose toxicity data were used to assist the selection of the doses in this repeated dose toxicity study. C57BL/6J mice (n=6 per group) were treated with 40, 80 or 150 mg/kg doses of FORMULA I intraperitoneally for 5 days. Control mice (n=4) were only treated with vehicle (DMSO:Cremophor EL:0.9% NaCl; 2.5:15:82.5, v/v, i.p.). Throughout the study, animals were monitored for mortality, clinical signs, body weight changes, body temperature, food and water consumptions, behaviour assessment and gross findings at the terminal necropsy. Body weights and body temperatures of mice were measured every day as an index of toxicity. Within 48 h after the last dose of FORMULA I administration, blood was collected from mice by cardiac puncture under isoflurane anesthesia. Hematological and biochemical analyzes were performed in blood. Liver, spleen, kidneys and lungs were removed and fixed in 10% formalin solution for histological examinations.

CRY2 = biological target: T1, CRY2 (Mus musculus, UniProt Q9R194); assay: Pull-down assay with biotinylated molecule, CRY2-HIS-MYC; type: binding; details: 50 μM bFORMULA I, 100 μM FORMULA I competitor
T1 construct: expressed in transfected cells; host or cells: HEK293T (lysate)
T1 sequence (Q9R194 1-592): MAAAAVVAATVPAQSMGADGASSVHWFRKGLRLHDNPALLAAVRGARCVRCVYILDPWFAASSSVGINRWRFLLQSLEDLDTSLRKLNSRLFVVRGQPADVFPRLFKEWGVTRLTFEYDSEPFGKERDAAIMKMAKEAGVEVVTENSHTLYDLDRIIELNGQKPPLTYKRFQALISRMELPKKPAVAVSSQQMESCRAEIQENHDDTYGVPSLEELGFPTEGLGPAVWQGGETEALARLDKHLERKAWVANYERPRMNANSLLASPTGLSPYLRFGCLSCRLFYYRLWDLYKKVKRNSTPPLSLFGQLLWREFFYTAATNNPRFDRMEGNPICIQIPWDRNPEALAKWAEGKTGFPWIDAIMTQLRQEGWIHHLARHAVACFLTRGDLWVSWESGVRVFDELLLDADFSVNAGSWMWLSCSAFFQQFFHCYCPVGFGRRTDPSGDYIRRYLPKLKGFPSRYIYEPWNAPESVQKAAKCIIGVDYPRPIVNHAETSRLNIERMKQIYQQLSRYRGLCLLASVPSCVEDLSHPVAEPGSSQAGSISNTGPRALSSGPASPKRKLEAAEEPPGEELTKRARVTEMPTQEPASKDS
Description: 10 μg of Cry1-pcDNA4, Cry2-pcDNA4 or Cry1-T5-pcDNA4 plasmids expressing His and Myc at the C-terminal of CRYs were transfected to HEK293T cell. After 48 h of transfection cells were harvested and lysed in lysis buffer (50 mM Tris pH 7.4, 2 mM EDTA, 1 mM MgCl2, 0.2% NP-40 (v/v), 0.1% sodium deoxycholate (w/v), 1 mM sodium orthovanadate, 1 mM sodium fluoride, and protease inhibitor cocktail (Thermo Scientific)). Lysates were incubated for 10 minutes on ice then mixed gently and incubated for another 10 minutes on ice. Then lysate was centrifuged for 10 minutes at 7000 g at 4° C. 5% of the supernatant was kept for input analysis. Remaining supernatant was divided to three and mixed with 2×binding buffer (100 mM Tris-HCl pH 7.4, 300 mM NaCl, 0.2% NP-40 (v/v), 2 mM sodium orthovanadate, 2 mM sodium fluoride, and protease inhibitor) with 1:1 ratio, incubated with rotation having either of these: a) DMSO, b) biotinylated molecule, c) biotinylated molecule and the competitor for 2 h. During this period NeutrAvidin Agarose resin (Thermo Scientific) was equilibrated with lysis buffer by mixing for 5 minutes via rotation at 4° C. three times. After each mix period, resins were centrifuged at 2500 g at 4° C. for 2 minutes and supernatant was discarded. […] Pulled-down samples were analyzed via western blot.

LUC = LUC degradation control in HEK293T; type: cell-based, firefly
Description: To insert Cry1-Luc, Cry2-Luc constructs and only Luc into pcDNA4A-myc-his plasmid, coding sequence of mouse Cry1 and firefly Luciferase in pG5luc plasmid (Addgene) was amplified with primers having EcoRV-NotI and NotI-XhoI flanking sites for Crys and Luc, respectively. Product size was verified by visualizing in agarose gel and product was isolated from the gel by using NucleoSpin PCR and Gel purification kit (Macherey Nagel). pcDNA4A plasmid having Luc was double digested with NotI and XhoI and used as insert; Cry1 pcDNA4A-myc-his and Cry2 pcDNA4A-myc-his plasmids were double digested with NotI and XhoI FastDigest enzymes (Thermo Scientific) and used as host plasmids. Hosts were treated with FASTAP (Thermo Scientific) to prevent self-annealing. After gel isolation and cleaning inserts with Gel purification kit (Macherey Nagel) and destination vectors were ligated by using T4 DNA ligase (Thermo Scientific).
40 ng of Cry1-Luc, Cry2-Luc, mutant Cry1-Luc plasmids or 5 ng Luc plasmid were reverse transfected to 4×10^4 HEK293T cells on opaque 96-well plate with flat bottom via PEI transfection reagent. 24 h after transfection, cells were treated with molecules or solvent (DMSO). […] Luminescence readings were recorded every 10 min at 32° C. for 24 h. Half-life of protein was calculated via one-phase exponential decay fitting function in GraphPad Prism5 software. […]

[1] = 150 mg/kg i.p. for 5 days, 3th day of injection

Cc1c(C(=O)N2CCc3ccccc32)oc2ccc3c(c12)C(=O)CC(C)(c1ccc(Cl)cc1)O3 (stereo not shown) [FORMULA I, 11-(4-chlorophenyl)-4-(2,3-dihydro-1H-indole-1-carbonyl)-3,11-dimethyl-5,10,dioxatricyclo[7.4.0.0,2,6,]trideca-1,3,6,8-tetraen-13-one]
body temperature (C57BL/6J mice; 40 mg/kg i.p. for 5 days): comparable to the control animals
clinical signs (C57BL/6J mice; 150 mg/kg i.p. for 5 days): hyporeflexia
deaths (C57BL/6J mice; [1]): 1/6
mortality (C57BL/6J mice; [1]): 16.6%
highest mean body weight loss (C57BL/6J mice; 150 mg/kg i.p., 3rd day of injection): 6.3%
clinical signs (C57BL/6J mice; 40 and 80 mg/kg i.p. for 5 days): no observed clinical signs
body temperature (mild hypothermia) (C57BL/6J mice; 80 and 150 mg/kg i.p., first day): 33.4-35.8 °C
tolerability (C57BL/6J mice; doses of 5 and 80 mg/kg (so in the source), 5 days): well-tolerated
physical binding to CRY2 (pull-down) (CRY2): does not bind to CRY2
stability of LUC (LUC): no effect on the stability of LUC
